Legend:
human NTPDase8 = molecular target: T1, human NTPDase8 (Homo sapiens, UniProt Q5MY95); assay: Capillary electrophoresis assay for human NTPDase8; type: biochemical; settings: ATP (100 μM) as substrate
T1 sequence (Q5MY95 1-495): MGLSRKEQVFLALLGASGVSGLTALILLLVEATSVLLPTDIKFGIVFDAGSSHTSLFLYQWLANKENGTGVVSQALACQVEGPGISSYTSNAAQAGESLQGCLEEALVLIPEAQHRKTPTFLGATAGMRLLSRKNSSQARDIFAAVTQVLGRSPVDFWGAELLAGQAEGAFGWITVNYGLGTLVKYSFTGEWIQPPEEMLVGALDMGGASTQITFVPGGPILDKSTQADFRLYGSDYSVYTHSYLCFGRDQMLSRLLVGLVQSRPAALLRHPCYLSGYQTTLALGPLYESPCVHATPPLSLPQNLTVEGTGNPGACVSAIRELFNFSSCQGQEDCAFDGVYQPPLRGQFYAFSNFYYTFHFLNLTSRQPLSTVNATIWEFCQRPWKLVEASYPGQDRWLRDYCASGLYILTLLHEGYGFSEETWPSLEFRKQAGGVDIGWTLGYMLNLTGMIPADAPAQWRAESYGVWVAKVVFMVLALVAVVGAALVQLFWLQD
Protocol: (§1) Inhibitory activity of the CD73 inhibitors 2 and 20 at human NTPDases 1, 2, 3, and 8 was investigated using ATP (100 μM) as a substrate according to previously published procedures.^24 ATP and 2 were co-incubated with recombinantly expressed human NTPDases at 37° C. for 30 min, and the enzymatic reaction was terminated by heating at 90° C. for 10 min. The amount of enzyme preparation was adjusted to ensure 10-20% of substrate conversion. The formed products were separated by capillary electrophoresis (CE) and individually quantitated by diode array detection (DAD) at a wavelength of 260 nm. For inhibition analysis, at least three independent experiments were performed each in triplicate. The inhibition of the enzyme activity was calculated in relation to the positive control without inhibitor and plotted by GraphPad Prism 8 software (GraphPad software, San Diego, CA, USA) (for results see Table 2 and Table 3).
(§2) Test compounds were investigated at a concentration of 50 μM, and 100 μM ATP substrate according to published procedures.^24 Recombinantly expressed human NTPDases were employed. The amount of enzyme preparation was adjusted to ensure 10-20% of substrate conversion. […] The inhibition of the enzyme activity was calculated in relation to the positive control without inhibitor and plotted in GraphPad Prism 8 software (GraphPad software, San Diego, CA, USA). […]

human P2Y12 receptor = molecular target: T2, human P2Y12 receptor (Homo sapiens, UniProt Q9H244); assay: β-arrestin recruitment assay at P2Y12 receptor; type: cell-based; settings: CHO-PK1 cells; for IC50: 2-methylthio-ADP as agonist at EC80 (3 μM), read-out: Inhibition P2Y12 receptor IC50; for EC50: read-out: Activation P2Y12 receptor EC50
T2 construct: host or cells: CHO-PK1 cells (so in the source)
Excerpt: The interaction of 2 with the human P2Y12 receptor was investigated in a β-arrestin recruitment assay using the galactosidase complementation technology as previously described.^25-27 The human P2Y12 receptor was expressed in CHO-PK1 cells (Eurofins DiscoverX, Fremont, CA, USA). For results see Table 2 and Table 3.

human NTPDase3 = molecular target: T3, human NTPDase3 (Homo sapiens, UniProt O75355); assay: Capillary electrophoresis assay for human NTPDase3; type: biochemical; settings: ATP (100 μM) as substrate
T3 sequence (O75355 1-529): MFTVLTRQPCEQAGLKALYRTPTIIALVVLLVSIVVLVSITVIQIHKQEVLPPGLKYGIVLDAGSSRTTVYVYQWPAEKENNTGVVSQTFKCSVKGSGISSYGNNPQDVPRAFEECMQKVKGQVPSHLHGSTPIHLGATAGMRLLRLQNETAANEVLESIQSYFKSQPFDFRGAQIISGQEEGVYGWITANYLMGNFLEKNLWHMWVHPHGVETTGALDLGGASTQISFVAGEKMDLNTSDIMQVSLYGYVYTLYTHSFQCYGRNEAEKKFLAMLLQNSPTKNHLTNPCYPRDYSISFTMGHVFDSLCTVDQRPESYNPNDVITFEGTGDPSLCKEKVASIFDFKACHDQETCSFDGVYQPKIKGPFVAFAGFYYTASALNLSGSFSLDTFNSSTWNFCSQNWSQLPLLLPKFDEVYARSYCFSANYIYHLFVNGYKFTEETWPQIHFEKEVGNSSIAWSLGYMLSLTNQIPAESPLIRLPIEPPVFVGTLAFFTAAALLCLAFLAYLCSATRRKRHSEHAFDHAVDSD
Protocol: as §1, §2

T2 sequence (Q9H244 whole entry): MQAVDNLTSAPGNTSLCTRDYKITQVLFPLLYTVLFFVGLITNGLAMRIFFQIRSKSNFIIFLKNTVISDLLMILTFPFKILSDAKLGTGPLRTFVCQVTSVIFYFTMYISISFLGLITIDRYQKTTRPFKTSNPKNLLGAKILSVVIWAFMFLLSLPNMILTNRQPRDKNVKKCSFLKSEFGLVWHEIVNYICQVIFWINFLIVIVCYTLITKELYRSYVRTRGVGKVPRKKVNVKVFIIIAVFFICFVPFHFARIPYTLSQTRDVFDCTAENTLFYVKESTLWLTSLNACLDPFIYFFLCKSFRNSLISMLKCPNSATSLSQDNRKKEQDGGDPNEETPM

Row | IC50 (human NTPDase8) [µM] | IC50 (human P2Y12 receptor) [µM] | EC50 (human P2Y12 receptor) [µM] | IC50 (human NTPDase3) [µM] | SMILES
1 | < 50 | > 10 | > 10 | 27.7 | O=C(NCCCCCCNC(=O)c1ccc2c(c1)C1(OC2=O)c2ccc(O)cc2Oc2cc(O)ccc21)c1ccc(CNc2nc(Cl)nc3c2ncn3[C@@H]2O[C@H](COP(=O)(O)CP(=O)(O)O)[C@@H](O)[C@H]2O)cc1 [Compound 20, (((((2R,3S,4R,5R)-5-(2-chloro-6-((4-((6-(3′,6′-dihydroxy-3-oxo-3H-spiro[isobenzofuran-1,9′-xanthene]-6-carboxamido)-hexyl)carbamoyl)benzyl)amino)-9H-purin-9-yl)-3,4-dihydroxytetrahydrofuran-2-yl)methoxy)(hydroxy)phosphoryl)methyl)phosphonic acid]
2 | > 50 | > 10 | > 10 | > 50 | CCCN(Cc1ccc(-c2cn(CCF)nn2)cc1)c1nc(Cl)nc2c1ncn2[C@@H]1O[C@H](COP(=O)(O)CP(=O)(O)O)C(O)C1O (some centres unmarked) [Compound 2]

Reference: US20250382322A1, “DIAGNOSTICS FOR DETECTING ECTO-5'-NUCLEOTIDASE (CD73)” (EBERHARD KARLS UNIVERSITÄT TÜBINGEN, priority 2022, published 2025)
